Values quoted from earlier work as cited in patent US20200246414A1, “COMPOSITIONS AND METHODS FOR THE TREATMENT OF CONSTIPATION AND OTHER AILMENTS OF THE GASTROINTESTINAL SYSTEM” (K.L.R.M., LLC, priority 2019, published 2020).

Test system: isolated gastric cells
Conditions: suspension of isolated gastric cells

Question: For `CCCC(=O)Nc1nc2c(ncn2C2O[C@H]3COP(=O)(O)O[C@@H]3[C@@H]2OC(=O)CCC)c(=O)[nH]1` (stereo partly shown) [Dibutyryl cyclic GMP], which “mucus secretion / mucus release” value is on record?
Answer: increased the mucus release

Question: With `CC(=O)N[C@H](C(=O)O)C(C)(C)SN=O` (racemic) [S-nitroso-N-acetylpenicillamine] as the compound, how does the “mucus secretion / mucus release” value read?
Answer: stimulated mucus secretion

Question: Which “mucus secretion / mucus release” value does the source give for `CCCOc1ccccc1-c1nc2[nH]nnc2c(=O)[nH]1` [M and B 22948] here?
Answer: increased the mucus release

Question: Which “mucus secretion / mucus release” value does the source give for `O=[N+]([O-])O[C@H]1CO[C@H]2[C@@H]1OC[C@H]2O[N+](=O)[O-]` [isosorbide dinitrate] here?
Answer: stimulated mucus secretion
